This is an account of results in EP4512403A1, “NEUROPEPTIDE B AND W-RECEPTOR AS A TARGET FOR TREATING MOOD DISORDERS AND/OR CHRONIC STRESS” (Friedrich-Schiller-Universität Jena, priority 2023, dated 2025).

One data set concerns circadian genes. Briefly: Read-counts of circadian genes (Per1, Per2, Cry, Bmal) after caffeine. In kind it is in vivo, mice. The note with it: normalized read-counts for Per1, Per2, Cry, 2h after caffeine. How it is done:
(§1) Next-generation RNA-sequencing. An in-house RNA-sequencing analysis pipeline was applied as described ^25. After artificial depletion of ribosomal RNA (rRNA) transcripts from the data set, more than 90% of reads aligned to the reference genome GRCm38, indicating excellent sample quality. Only changes that reached an adjusted P-value < 0.05 and a log2FC 0.5 <> - 0.5 were further considered.
(§2) To determine caffeine-regulate transcripts, next-generation RNA-sequencing 2h after caffeine-injection on NAc of wildtype (WT) and T75A mice were performed. Tissue was collected at four time points along the diurnal clock ^14. As expected, significant changes in circadian markers were observed, which oscillated in the expected manner across the four measured time points (Per1, Per2, Cry1, Bmal), both in WT and T75A-DARPP-32 mutant mice (Figure 3). […] Altered transcripts belonged to a variety of cellular signaling pathways, including synaptic transmission, transcriptional regulation and hormonal signaling (Figure 4C).

In the next data set the test system is Npbwr1. Kind of data set: Npbwr1 expression in NAc after caffeine (RNA-sequencing, qPCR). In kind it is in vivo, mice.
From the text: (§3) RNA purification and quantification. […] RNA was washed in isopropanol and 75% Ethanol. […] Primer sequences are listed in the supplementary material. Quantitative PCR results were processed as described ^22.
as §1, §2

Data set [1] deals with mice. Kind of data set: Escape behavior tests in naive WT and T75A mice 24h after caffeine. The format is in vivo. The note with it: naïve WT mice; 7.5 mg/kg caffeine in the dark phase; tested 24h later. Here is the method:
(§4) Behavioral tests and CVS. The acute behavioral tests forced swim test, tail suspension test, sucrose preference, splash test and novelty suppressed feeding were performed as described ^13,23. After CVS, no tail suspension test was conducted, as tail suspension is part of the stress-induction protocol. For CVS-groups, caffeine was injected at the last day of CVS (day 21), just prior to the stressor. The CVS-protocol was performed as described ^13. […] Stressors consist of one hour of either, tube restraint, tail suspension or 100 mild electric random […]. If only female experimenters were present, a used male t-shirt was wrapped in clean protective clothing from the animal unit and placed into the experimental room in order to avoid variability due to sex-specific scents of the scientists ^24. All experiments were conducted in the light phase of the light-cycle to allow comparability with previous experiments ^22.

Another data set deals with NAc dendritic spines. Briefly: NAc dendritic spine analysis after CVS and caffeine. In kind it is in vivo, mice. The text has this: (§5) AAVs, stereotaxic surgery and microinjection.
Dendritic spine analysis. The analysis was based on detecting the AAVs' GFP-fluorophores. Photos of 40 µm PFA-fixed brain sections were taken with a Zeiss LSM 880 confocal microscope using the AiryScan method. Maximum intensity projections were obtained using Zen Black and Zen Blue software and analysed in NeuronStudio (CNIC, Mount Sinai School of Medicine). The total density of spines, proportions of thin, mushroom and stubby spines as well as the cumulative neck-length were determined in Graph Prism. Neck-containing mushroom density refer to the sum of thin and mushroom spine densities.

Data set [2] concerns NAc of wildtype (WT) and DARPP-32-T75A mutant mice. Briefly: RNA-sequencing of NAc 2h after caffeine injection. In kind it is in vivo. The note with it: active and inactive phases. How it is done: as §1, §2
Data set [3] deals with mice. Briefly: Behavioral tests after chronic variable stress (CVS), 24h after caffeine. In kind it is in vivo. The note with it: female mice after CVS, 7.5 mg/kg caffeine i.p., tested 24h later. How it is done: as §4
For data set [4], the system named is mice. The note with it: both sexes; reference 14; cited from earlier work.
The next data set concerns mouse brain. The note with it: intracerebroventricular injection; reference 15; cited from earlier work.
Data set [5] concerns mice. Briefly: Splash test after CVS and ligand microinfusion. The format is in vivo. The note with it: naive mice; tested app. 24 h after microinfusion. How it is done: as §5, §4
Data set [6] has as its system mice. Kind of data set: Forced swim test after CVS and ligand microinfusion. In kind it is in vivo. Conditions: naive mice; 1 nM NPB or 1 µM CYM50769 into NAc; tested app. 24 h later. Here is the method:
as §5, §4

For data set [7], the system named is mice. Kind of data set: Sucrose preference after CVS and ligand microinfusion. The note with it: tested app. 24 h after microinfusion. In kind it is in vivo. Here is the method:
as §5, §4

In data set [8] the test system is mice. Kind of data set: Tests for depressive-like behavior (forced swim, splash, sucrose preference) 24 h after ligand microinjection. The format is in vivo. Conditions: 24 h later; for behavioral effects of CVS: CVS mice, 1 nM NPB or 1 µM CYM50769 into NAc after last stress session; for depressive-like behaviors: naïve mice, 1 nM NPB or 1 µM CYM50769 into NAc. Here is the method:
as §5, §4
Next, the rapid effects of Npbwr1 activity were tested on depressive-like behaviors in vivo. To that end, mice underwent CVS and were microinjected with 1 nM NPB and 1 µm CYM50769 after the last session of stress induction. Behavioral tests were conducted 24 h later. […] In contrast, CYM50769 had no effects in naïve mice.

Another data set deals with Per2. Briefly: qPCR of circadian gene Per2 after microinfusion into the NAc. In kind it is in vivo, mice. The note with it: 1nmolar NPB or 1 µmolar CYM50769 into NAc, tissue 24 h later.
From the text: as §3, §5

The next data set deals with Bdnf. Briefly: Bdnf qPCR after microinfusion of Npbwr1 ligands into the NAc. In kind it is in vivo, mice.
From the text: as §3, §5

The subject of another data set is Bcl2. Kind of data set: qPCR of apoptosis marker Bcl2 after microinfusion into the NAc. In kind it is in vivo, mice. The note with it: 1nmolar NPB or 1 µmolar CYM50769 into NAc, tissue 24 h later.
From the text: as §3, §5

Another data set relates to Casp3. Kind of data set: qPCR of apoptosis marker Casp3 after microinfusion into the NAc. The format is in vivo, mice. The note with it: 1nmolar NPB or 1 µmolar CYM50769 into NAc, tissue 24 h later.
From the text: as §3, §5

Data set [9] has as its system mice. Kind of data set: Splash test after CVS and ligand microinfusion. The note with it: tested app. 24 h after microinfusion. In kind it is in vivo. Here is the method: as §4, with “Drugs” for “Behavioral tests”, “chemicals. […]” for “CVS. The acute behavioral tests forced swim test, tail suspension test, sucrose preference, splash test and novelty suppressed feeding were performed as described ^13,23.”, “For CVS-groups, caffeine was injected at the last day of CVS (day 21), just prior to the stressor.” left out

Data set [10] deals with mice. Kind of data set: Forced swim test after CVS and ligand microinfusion. The format is in vivo. Conditions: microinfused after last stress induction, tested app. 24 h later. How it is done:
as §4, with “Drugs” for “Behavioral tests”, “chemicals. […]” for “CVS. The acute behavioral tests forced swim test, tail suspension test, sucrose preference, splash test and novelty suppressed feeding were performed as described ^13,23.”, “For CVS-groups, caffeine was injected at the last day of CVS (day 21), just prior to the stressor.” left out

Data set [11] concerns mice. Conditions: acute microinfusion into NAc.
Method: Drugs and chemicals. Mice were intraperitoneally (i.p.) injected with 7.5 mg/kg caffeine (#, C0750, Sigma) or saline at an injection volume of 10ml/kg body weight and tested 2 or 24 h later.
In order to address the rapid acting aspects of the Npbwrl-pathway, ligands were microinjected into the NAc that activate (NPB) or inhibit (CYM50769) Npbwr1. While NPB is a natural neurotransmitter, CYM50769 is a synthetic ligand, which has not been tested in vivo. […] Doses of 0.1 µM, 1 µM and 10 µM CYM50769 were injected and mice were scored for health markers for 7 days.
Where [12] appears, read: 1nmolar NPB or 1 µmolar CYM50769 microinfused into NAc, tissue collected 24 h later.

“Also recorded” adds a separate entry of the source.

On to `Cn1c(=O)c2c(ncn2C)n(C)c1=O` [caffeine], for which the “amplitude of circadian oscillations” value with circadian genes is “may slightly flatten the amplitude”. Also, the Npbwr1 levels result in the data set on Npbwr1 (24h after caffeine injection, dark phase) is given as “decreased; also recorded: reduced”. In addition, the Npbwr1 expression result with Npbwr1 (WT mice, 2h after caffeine injection, end of the dark phase) is reported as “increased”. For the same compound, the Escape behaviors result in the data set on mice [1] is “altered”. In addition, the “CVS-induced changes in NAc dendritic spines” value in the data set with NAc dendritic spines (females, 24h after caffeine injection) is “reversed by caffeine back to naive levels”. The Cumulative head diameter result in the data set on NAc dendritic spines (females, CVS, 24h after caffeine) was “reversed”. Also, in the data set with NAc dendritic spines (males, CVS, caffeine), the CVS-induced spine changes result is “partially reversed” and the Cumulative head diameter result is listed as “reversed”. In addition, the caffeine-induced transcriptional changes result in [2] was “biggest effect of caffeine occurs in WT in the active phase; also recorded: occurred in WT in the active (dark) phase”. In addition, in the data set with mice [3], the stress-induced behavioral changes entry was “reversed; also recorded: improved stress-induced behavioral changes”. Moreover, the mood-elevating effects result in the data set on mice [4] is given as “only occurred in the active (dark) phase”.

Consider “NPB: natural agonist of Npbwr1, a natural neurotransmitter; short biologically active peptide (#CSB-MP015971HU-100, Cusabio)”, for which the feeding result with mouse brain is listed as “induced hyperphagia after 2 h, followed by hypophagia”. The “Splash test, grooming” value in the data set on mice [5] is on record as “may reduce grooming”. Besides, in the data set with mice [6], the “Forced swim test, immobility time” value was “increases immobility time”. For the same compound, the “Sucrose preference, ratio of sucrose solution consumed” value in the data set with mice [7] (naive mice) was “reduce the ratio of sucrose solution consumed”. Further, in the data set on mice [8], the “behavioral effects of CVS” value is recorded as “not enhancing the behavioral effects of CVS further” and the depressive-like behaviors entry is “elicited depressive-like behaviors; also recorded: increased depressive-like behaviors; also recorded: mimicked chronic stress effects”. Besides, in the data set on Per2, the “Per2 (circadian gene)” value is recorded as “not affected; also recorded: did not alter”. In addition, the Bdnf entry in the data set on Bdnf (setting [12]) was “decreases Bdnf; also recorded: altered Bdnf-levels; also recorded: opposing effect on Bdnf”.

As for `COc1ccc(Oc2c(Cl)cnn(C3c4ccccc4-c4ccccc43)c2=O)cc1` [CYM50769], in the data set with Bcl2, the “Bcl2 (apoptosis marker)” value is listed as “No effect; also recorded: Neither NPB nor CYM50769 affected”. For the same compound, the “Casp3 (apoptosis marker)” value with Casp3 was “does not alter; also recorded: Neither NPB nor CYM50769 affected”. Also, the “Splash test, CVS-effects” value with mice [9] is reported as “blocks CVS-effects”. For the same compound, in the data set with mice [7], the “Sucrose preference, CVS-effects” value is given as “rescues CVS-effects”. Moreover, the figures for the “behavioral effects of CVS” value in the data set with mice [8] and in the data set on mice [8] (listed as CYM5069) were “rescued CVS-effects; also recorded: blocked those” and “reversed effects of chronic stress on behavior”, respectively. Also, the depressive-like behaviors result with mice [8] is reported as “no effects”. The “Per2 (circadian gene)” value with Per2 is given as “not affected; also recorded: did not alter”. For the same compound, the Bdnf entry is on record as “increases Bdnf; also recorded: altered Bdnf-levels” in the data set on Bdnf (setting [12]); “persists at the 7 day time point” in the data set on Bdnf (1 µmolar CYM50769 microinfused into NAc, single dose, tissue collected 7 days later); “altered Bdnf levels starting at 24h for up to 7 days” with Bdnf (1 µmolar CYM50769 microinfused into NAc, single dose, tissue collected 7 days later, listed as CYM5069). The “Forced swim test, CVS-effects” value in the data set on mice [10] is on record as “blocks CVS-effects”. In the data set with mice [11], the “selectivity and tolerability of an acute dose” value was “selective and well tolerated”.
